The test relates to FGF19. Kind of test: Expression of FGF19 mRNA in HT29 cells by RT-qPCR. In kind it is cell-based, human. The conditions noted are these: 6 h; for increase of expression of the FGF19 gene compared to control (carrier=DMSO): Example 5, HT29 cells; for increase of expression of the FGF19 gene compared with control (carrier=DMSO): Example 6, HT29 cells. The source says:
For cell cultures, the HT29 (ECACC 91072201), HT29-MTX and Caco-2 lines derived from a human colorectal adenocarcinoma are used, conventionally used as cell lines representative of human enterocytes. The cells are systematically cultured in Dulbecco's Modified Eagle Medium (DMEM): 4.5 g/L of glucose supplemented with 1% of sodium pyruvate, 1% of penicillin-streptomycin and 10% of decomposed fetal-bovine serum (FBS) (Eurobio, Les Ulis, France). For the 12-well and 96-well plate experiments, the HT29 cells were seeded with a density of 7.5×10^4 cells/cm^2 with a medium changed every 2 days and the cells were exposed to different experimental conditions 2 days after confluence with a depleted complete medium in FBS. For the 12-well plates (Costar®, Cambridge, MA), Caco-2 and HT29-MTX cells were seeded in a ratio of 1:1 with a density of 2.5×10^4 cells/cm^2. The cells were cultured for 14 days in a complete medium to allow differentiation. The medium was changed in the two compartments every two days until exposure to the complete medium was depleted in the FBS. The integrity of the cellular monolayer was evaluated by measuring the transepithelial electrical resistance (TEER) using a Millicell-ERS (Millipore Corp., Billerica, MA). The cell culture was sourced from Dutscher (Issy-les-Moulineaux, France), unless specified otherwise.
The various conditions of the carrier as PD were dissolved in PBS and the agonists were dissolved in DMSO. After exposure, the cell supernatants were stored at −80° C. for the measurements of the secretion of FGF19 proteins, and the cell monolayers were maintained at −80° C. until total extraction of the RNA.
The effect of this exposure is measured by quantifying the messenger RNA of the FGF19 using the following protocol: the expression of the target genes was evaluated by quantifying their mRNA level in the cells by RT-qPCR. The total RNA was isolated using the TRI-Reagent solution (Sigma Aldrich). First-strand complementary DNA was synthesized from 1 μg of total RNA using the TAKARA Prime ScriptMC RT reagent kit (TAKARA Bio, Saint-Germain-en-Laye, France). The qPCR tests were carried out using the SYBR® Premix Ex-Taq™ kit (TAKARA Bio) on Rotor-Gene™ 6000 (Corbet Research, Mortlake, Australia). The mRNA levels of the human TATA binding protein (TBP) were used to normalize the data.
[FIG. 1] summarizes the results obtained. The HT29 cells were exposed to the various PDs alone or in combination with an FXR agonist to determine their potential capacity to increase the expression of the FGF19 gene. […]
The capacity of the RQ3 and RQ7 digestates to increase the level of expression of the FGF19 mRNA and also the production and secretion of proteins was then evaluated. […]
On the technique in general: Real-time PCR tracks product formation cycle by cycle.

SMILES strings stand for the structures.

`CC(C)c1onc(-c2c(Cl)cccc2Cl)c1COc1ccc(C=Cc2cccc(C(=O)O)c2)c(Cl)c1` [GW4064, 3-(2,6-Dichlorophenyl)-4-(3′-carboxy-2-chlorostilben-4-yl)oxymethyl-5-isopropylisoxazole]: the “increase of expression of the FGF19 gene compared to control (carrier=DMSO)” value runs as follows: (GW4064 0.1 μM alone) 2 times; (GW4064 1 μM alone) 6.2 times. Further, the “increase of expression of the FGF19 gene compared with control (carrier=DMSO)” value is, setting by setting: (GW4064 0.1 μM alone) 2.3 times; (GW4064 1 μM alone) 6.6 times.
